Test results published in patent US9605005B2, “Alkynyl alcohols and methods of use” (Genentech, Inc., priority 2013, dated 2017).

How the values were obtained:
[1] = target: nuclear factor-kappa B (NF-kB)-inducing kinase (NIK) (Homo sapiens (Human), UniProt Q99558); test: NIK enzyme inhibition assay (Transcreener ADP, NIK ADP-FP); assay type: biochemical; settings: purified NIK 0.5 nM, 10 μM ATP, fluorescence polarization; read-out: NIK ADP-FP (Ki μM)
[2] = tested on: REL-A (p65) nuclear translocation, HeLa cells; test: REL-A (p65) nuclear translocation assay in HeLa cells (classical NF-kB signaling, TNF-α stimulated); assay type: cell-based; settings: Homo sapiens, 0.5 h; HeLa cells, 10 ng/mL TNF-α for 30 minutes; read-out: REL-A HeLa Transloc Assay (IC50)
In short: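 HeLa cells were exposed to test compounds at various concentrations (0.2% DMSO final) in medium with 10% fetal bovine serum for 4.5 hours, then stimulated for 30 minutes with 10 ng/mL TNF-α. After fixation in 4% paraformaldehyde, 0.1% Triton X-100 permeabilization and staining with 400 ng/mL anti-REL-A (p65) antibody, Alexa488 secondary and DRAQ5, Opera imaging gave nuclear-to-cytoplasmic signal ratios to calculate IC50.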

[3] = tested on: p52 (NF-kB2) nuclear translocation, HeLa cells; test: p52 (NF-kB2) nuclear translocation assay in HeLa cells (non-classical NF-kB signaling, anti-lymphotoxin beta receptor antibody stimulated); assay type: cell-based; settings: Homo sapiens, 100 ng/mL anti-lymphotoxin beta receptor antibody for 5 hours, read-out: p52 HeLa Transloc Assay (IC50)
In short: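 HeLa cells in 10% FBS medium were treated with compound (0.2% DMSO final) and stimulated with 100 ng/mL anti-lymphotoxin beta receptor antibody for 5 h. Fixed cells were immunostained for p52 and imaged with DRAQ5 nuclear stain. Translocation is the nuclear to cytoplasmic intensity ratio, and IC50 values are in micromolar.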

Chain of nuclear factor-kappa B (NF-kB)-inducing kinase (NIK) (Q99558 whole entry): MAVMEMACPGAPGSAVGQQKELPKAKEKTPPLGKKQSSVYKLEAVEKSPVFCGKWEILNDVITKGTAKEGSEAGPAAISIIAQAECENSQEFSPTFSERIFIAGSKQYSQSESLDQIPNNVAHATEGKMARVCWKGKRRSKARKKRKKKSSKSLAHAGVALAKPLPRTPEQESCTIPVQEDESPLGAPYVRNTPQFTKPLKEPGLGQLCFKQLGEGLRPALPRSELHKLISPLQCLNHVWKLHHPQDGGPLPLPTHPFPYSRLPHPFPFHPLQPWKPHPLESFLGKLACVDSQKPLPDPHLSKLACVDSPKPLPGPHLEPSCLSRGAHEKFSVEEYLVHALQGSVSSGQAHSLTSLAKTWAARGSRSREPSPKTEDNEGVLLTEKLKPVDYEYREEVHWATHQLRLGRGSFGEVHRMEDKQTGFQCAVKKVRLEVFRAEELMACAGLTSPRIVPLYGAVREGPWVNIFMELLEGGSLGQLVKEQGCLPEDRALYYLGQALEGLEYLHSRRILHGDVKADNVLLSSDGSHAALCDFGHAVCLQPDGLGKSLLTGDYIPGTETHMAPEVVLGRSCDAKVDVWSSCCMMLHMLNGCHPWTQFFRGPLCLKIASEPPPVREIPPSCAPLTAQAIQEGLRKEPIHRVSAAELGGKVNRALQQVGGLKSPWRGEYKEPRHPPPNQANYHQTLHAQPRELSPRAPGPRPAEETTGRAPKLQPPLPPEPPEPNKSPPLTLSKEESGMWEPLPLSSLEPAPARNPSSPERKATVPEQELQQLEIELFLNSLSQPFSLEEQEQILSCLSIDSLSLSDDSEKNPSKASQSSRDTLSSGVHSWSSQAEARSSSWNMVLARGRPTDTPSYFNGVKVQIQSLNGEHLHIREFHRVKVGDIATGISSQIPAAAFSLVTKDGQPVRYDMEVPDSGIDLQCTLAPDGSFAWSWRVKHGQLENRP

SMILES	Ki [1] [nM]	IC50 [2] [nM]	IC50 [3] [nM]
CN1CC[C@@](O)(C#Cc2cccc(-c3nc(C(N)=O)n4ccc(OC5CCC5)cc34)c2)C1=O [Compound 96, 7-(cyclobutoxy)-1-[3-[2-[(3R)-3-hydroxy-1-methyl-2-oxo-pyrrolidin-3-yl]ethynyl]phenyl]imidazo[1,5-a]pyridine-3-carboxamide]	0.14	20000	60.3
CN1CC[C@@](O)(C#Cc2cccc(-c3nc(C(N)=O)n4ccc(CN5CCOCC5)cc34)c2)C1=O [Compound 99, 1-[3-[2-[(3R)-3-hydroxy-1-methyl-2-oxo-pyrrolidin-3-yl]ethynyl]phenyl]-7-(morpho-linomethyl)imidazo[1,5-a]pyridine-3-carboxamide]	1.52	2000	231
CN1CC[C@@](O)(C#Cc2ccc(F)c(-n3nc(C(N)=O)c4c3CCC4)c2)C1=O [Compound 145, 1-[2-fluoro-5-[2-[(3R)-3-hy-droxy-1-methyl-2-oxo-pyrroli-din-3-yl]ethynyl]phenyl]-5,6-dihydro-4H-cyclopenta [c]pyrazole-3-carboxamide]	1.24	20000	266
CN1CC[C@@](O)(C#Cc2cc(C#N)cc(-n3nc(C(N)=O)c4cccnc43)c2)C1=O [Compound 111, 1-[3-cyano-5-[2-[(3R)-3-hy-droxy-1-methyl-2-oxo-pyrroli-din-3-yl]ethynyl]phenyl] pyrazolo[3,4-b]pyridine-3-carboxamide]	4.86	20000	701
CN1CC[C@@](O)(C#Cc2cc(-n3nc(C(N)=O)c4cccnc43)cc(C(F)(F)F)c2)C1=O [Compound 36, 1-[3-[2-[(3R)-3-hydroxy-1-methyl-2-oxo-pyrrolidin-3-yl]ethynyl]-5-(trifluorometh-yl)phenyl]pyrazolo[3,4-b] pyridine-3-carboxamide]	5.53	20000	164
COc1ccn2c(C(N)=O)nc(-c3cccc(C#C[C@@](C)(O)c4nnc(C)o4)c3)c2c1 [Compound 181, 1-[3-[(3R)-3-hydroxy-3-(5-methyl-1,3,4-oxadiazol-2-yl)but-1-ynyl]phenyl]-7-methoxy-imidazo[1,5-a] pyridine-3-carboxamide]	0.1	> 2000	48
Cc1cc(C#C[C@]2(O)CCN(C)C2=O)cc(-n2nc(C(N)=O)c3cccnc32)c1 [Compound 152, 1-[3-[2-[(3R)-3-hydroxy-1-methyl-2-oxo-pyrrolidin-3-yl]ethynyl]-5-methyl-phenyl] pyrazolo[3,4-b]pyridine-3-carboxamide]	0.87	20000	45.8
CN1CC[C@@](O)(C#Cc2cccc(-n3nc(C(N)=O)c4ccc(N5CCOCC5)nc43)c2)C1=O [Compound 155, 1-[3-[2-[(3R)-3-hydroxy-1-methyl-2-oxo-pyrrolidin-3-yl]ethynyl]phenyl]-6-morpho-lino-pyrazolo[3,4-b]pyri-dine-3-carboxamide]	0.26	20000	129
CNc1nccc2c1c(C(N)=O)nn2-c1cccc(C#C[C@]2(O)CCN(C)C2=O)c1 [Compound 49, 1-[3-[2-[(3R)-3-hydroxy-1-methyl-2-oxo-pyrrolidin-3-yl]ethynyl]phenyl]-4-(meth-ylamino)pyrazolo[4,3-c]pyri-dine-3-carboxamide]	0.05	8000	7.7
CN1CC[C@@](O)(C#Cc2cccc(-n3nc(C(N)=O)c4ccc(C#N)cc43)c2)C1=O [Compound 46, 6-cyano-1-[3-[2-[(3R)-3-hy-droxy-1-methyl-2-oxo-pyrroli-din-3-yl]ethynyl]phenyl] indazole-3-carboxamide]	0.5	20000	123
CN1CC[C@@](O)(C#Cc2ccnc(-n3nc(C(N)=O)c4c3CCC4)c2)C1=O [Compound 56, 1-[4-[2-[(3R)-3-hydroxy-1-methyl-2-oxo-pyrrolidin-3-yl]ethynyl]-2-pyridyl]-5,6-dihydro-4H-cyclopenta[c]py-razole-3-carboxamide]	0.87	20000	355
CN1CC[C@@](O)(C#Cc2cccc(-n3nc(C(N)=O)c4ccc(F)cc43)c2)C1=O [Compound 189, 6-fluoro-1-[3-[2-[(3R)-3-hydroxy-1-methyl-2-oxo-pyrrolidin-3-yl]ethynyl]phenyl] indazole-3-carboxamide]	0.05	> 2000	95
CN1CC[C@@](O)(C#Cc2cc(-n3nc(C(N)=O)c4c3CCCC4)ccn2)C1=O [Compound 166, 1-[2-[2-[(3R)-3-hydroxy-1-methyl-2-oxo-pyrrolidin-3-yl]ethynyl]-4-pyridyl]-4,5,6,7-tetrahydroindazole-3-carbox-amide]	1.19	20000	320
CN1CC[C@@](O)(C#Cc2cccc(-c3nc(C(N)=O)n4cccnc34)c2)C1=O [Compound 85, 8-[3-[2-[(3R)-3-hydroxy-1-methyl-2-oxo-pyrrolidin-3-yl]ethynyl]phenyl]imidazo[1,5-a]pyrimidine-6-carboxamide]	0.05	19200	38.6
